pIC50: −log10 of the molar value. Structures can show the parent of a compound that is named as a salt. Where two headings read alike, the source gives them in different places.
Legend:
[1] = target: T1, HsDYRK1A (Homo sapiens, UniProt Q13627); assay: ADP-Glo kinase assay; format: biochemical; conditions: for remaining activity at 1 µM / remaining activity at 10 µM: n=2, read-out: % of residual activity Hs_DYRK1A
T1 construct: host or cells: Sf9 insect cells (baculovirus)

[2] = target: T2, Hs_CDK5/p25 (Homo sapiens, UniProt Q00535); assay: ADP-Glo kinase assay, primary screen; format: biochemical; conditions: n=2, read-out: % of residual activity Hs_CDK5/p25
T2 construct: host or cells: bacteria

[3] = target: T3, Hs_CDK9/CyclinT (Homo sapiens, UniProt P50750); assay: ADP-Glo kinase assay, primary screen; format: biochemical; conditions: n=2, read-out: % of residual activity Hs_CDK9/CyclinT
T3 construct: host or cells: Sf9 insect cells (baculovirus)

[4] = cytotoxic assay, nuclei count (Hoechst, HCS); format: cell-based; conditions: human, MDA-MB-231 cells (breast carcinoma); 48 h treatment; read-out: Cytotoxic studies IC50 MDA-MB-231
[5] = target: T4, MmCLK1 (Mus musculus, UniProt P22518); assay: ADP-Glo kinase assay; format: biochemical; conditions: for remaining activity at 1 µM / remaining activity at 10 µM: n=2, read-out: % of residual activity Mm_CLK1
T4 construct: host or cells: bacteria

[6] = cytotoxic assay, nuclei count (Hoechst, HCS); format: cell-based, human; conditions: human, human skin fibroblasts (non-cancerous reference cells); 48 h treatment; some cells add low/moderate/high amplitude; read-out: Cytotoxic studies IC50 Fibroblasts
Method: (§1) To complete our study, we performed a cytotoxicity screening of the 15 molecules, investigating 7 representative cancer cell lines. The compound’s effect on cell viability was evaluated on Huh-7 (hepatocellular carcinoma), CaCo2, HCT-116 (colorectal adenocarcinoma), MCF7, MDA-MB231, MDA-MB468 (breast carcinoma), PC3 (prostate carcinoma) and NCI-H727 (lung carcinoid). Human skin fibroblasts were used as reference for non-cancerous cells. Roscovitine, Doxorubicin and Taxol were used as positive controls. The cells were treated for 48 h with 25 µM compounds and fixed in cooled 90% ethanol/5% acetic acid for 20 min. The nuclei were stained with Hoechst 33342 and counted using HCS technology.
(§2) HuH7, CaCo-2, MDA-MB-231, HCT116, PC3, MCF7 and NCI-H727 cancer cell lines were obtained from the ECACC collection (Porton Down, UK). Cells were grown at 37 °C, 5% CO2 in ECACC recommended media: DMEM for HuH7, MDA-MB-231 and fibroblast, EMEM for MCF7and CaCo-2, McCoy’s for HCT116 and RPMI for PC3 and NCI-H727. All culture media were supplemented with 10% of FBS, 1% of penicillin-streptomycin and 2 mM glutamine.
(§3) Chemicals were solubilized in DMSO at a concentration of 10 mM (stock solution) and diluted in culture medium to the desired final concentrations.
(§4) The cytotoxic assay of chemical was performed at 25 µM. Cells were plated in 96 wells plates (4000 cells/well). Twenty-four hours after seeding, cells were exposed to chemicals. After 48 h of treatment, cells were washed in PBS and fixed in cooled 90% ethanol/5% acetic acid for 20 min and the nuclei were stained with Hoechst 33342 (B2261 Sigma). Image acquisition and analysis were performed using a CellomicsArrayScan VTI/HCS Reader (ThermoScientific, Waltham, MA, USA). The survival percentages were calculated as the percentage of cell number after compound treatment over cell number after DMSO treatment.

[7] = target: T5, Hs_HASPIN (Homo sapiens, UniProt Q8TF76); assay: ADP-Glo kinase assay, primary screen; format: biochemical; conditions: n=2, read-out: % of residual activity Hs_HASPIN
T5 construct: host or cells: bacteria
T5 sequence (Q8TF76 1-798): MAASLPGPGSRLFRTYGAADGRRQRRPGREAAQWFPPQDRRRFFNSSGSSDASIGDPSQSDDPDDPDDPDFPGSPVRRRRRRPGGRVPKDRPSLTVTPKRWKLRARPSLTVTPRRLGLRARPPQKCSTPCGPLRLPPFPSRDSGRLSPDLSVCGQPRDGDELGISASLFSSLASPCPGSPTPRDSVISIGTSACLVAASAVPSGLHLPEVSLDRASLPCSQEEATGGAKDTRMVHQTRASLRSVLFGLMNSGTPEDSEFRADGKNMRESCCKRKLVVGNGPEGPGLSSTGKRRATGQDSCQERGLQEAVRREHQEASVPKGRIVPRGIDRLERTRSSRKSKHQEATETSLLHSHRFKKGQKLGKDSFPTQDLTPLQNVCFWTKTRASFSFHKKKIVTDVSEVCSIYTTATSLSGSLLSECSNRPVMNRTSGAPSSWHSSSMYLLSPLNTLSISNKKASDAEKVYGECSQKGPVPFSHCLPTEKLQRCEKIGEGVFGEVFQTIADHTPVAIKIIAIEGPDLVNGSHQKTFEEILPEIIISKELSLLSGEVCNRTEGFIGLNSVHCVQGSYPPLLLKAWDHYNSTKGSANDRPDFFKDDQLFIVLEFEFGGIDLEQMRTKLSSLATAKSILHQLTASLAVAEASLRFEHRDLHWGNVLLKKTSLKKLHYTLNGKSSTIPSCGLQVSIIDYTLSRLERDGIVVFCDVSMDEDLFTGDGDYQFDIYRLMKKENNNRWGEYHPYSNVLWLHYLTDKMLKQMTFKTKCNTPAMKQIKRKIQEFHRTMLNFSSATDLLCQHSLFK

[8] = target: T6, Hs_PIM1 (Homo sapiens, UniProt P11309); assay: ADP-Glo kinase assay, primary screen; format: biochemical; conditions: n=2, read-out: % of residual activity Hs_PIM1
T6 construct: host or cells: Sf9 insect cells (baculovirus)

[9] = cytotoxic assay, nuclei count (Hoechst, HCS); format: cell-based; conditions: human, HuH7 cells (hepatocellular carcinoma); 48 h treatment; read-out: Cytotoxic studies IC50 HuH7
[10] = cytotoxic assay, nuclei count (Hoechst, HCS); format: cell-based; conditions: human, 48 h treatment
Method: as §1, §2, §3
as §4, with “The cytotoxic assay of chemical was performed at 25 µM.” left out

[11] = cytotoxic assay, nuclei count (Hoechst, HCS); format: cell-based; conditions: human, MCF7 cells (breast carcinoma); 48 h treatment; read-out: Cytotoxic studies IC50 MCF7
Method: as §1, §2, §3, §4

[12] = target: T7, Hs_CK1ε (Homo sapiens, UniProt P49674); assay: ADP-Glo kinase assay, primary screen; format: biochemical; conditions: n=2, read-out: % of residual activity Hs_CK1ε
T7 construct: host or cells: Sf9 insect cells (baculovirus)

[13] = target: T8, Rn_DYRK1A (Rattus norvegicus, UniProt Q63470); assay: ADP-Glo kinase assay, primary screen; format: biochemical; conditions: n=2, read-out: % of residual activity Rn_DYRK1A
T8 construct: host or cells: bacteria

[14] = cytotoxic assay, nuclei count (Hoechst, HCS); format: cell-based; conditions: human, Caco-2 cells (colorectal adenocarcinoma); 48 h treatment; read-out: Cytotoxic studies IC50 Caco2
[15] = target: T9, Hs_GSK3β (Homo sapiens, UniProt P49841); assay: ADP-Glo kinase assay, primary screen; format: biochemical; conditions: n=2, read-out: % of residual activity Hs_GSK3β
T9 construct: host or cells: Sf9 insect cells (baculovirus)

[16] = HCT116 cells (colorectal adenocarcinoma), read-out: Cytotoxic studies IC50 HCT116
[17] = MDA-MB-468 cells (breast carcinoma), read-out: Cytotoxic studies IC50 MDA-MB-468

T3 sequence (P50750 whole entry): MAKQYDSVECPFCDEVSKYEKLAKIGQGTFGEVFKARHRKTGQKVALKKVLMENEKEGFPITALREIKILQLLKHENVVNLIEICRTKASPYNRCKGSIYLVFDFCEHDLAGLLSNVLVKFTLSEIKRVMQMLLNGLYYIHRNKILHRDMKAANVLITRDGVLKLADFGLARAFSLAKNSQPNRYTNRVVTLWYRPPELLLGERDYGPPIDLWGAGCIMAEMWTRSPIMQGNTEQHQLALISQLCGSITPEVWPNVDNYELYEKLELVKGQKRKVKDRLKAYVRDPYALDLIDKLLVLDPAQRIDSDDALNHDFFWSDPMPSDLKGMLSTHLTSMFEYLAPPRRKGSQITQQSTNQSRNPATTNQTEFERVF
T3 sequence (O60563 whole entry partner): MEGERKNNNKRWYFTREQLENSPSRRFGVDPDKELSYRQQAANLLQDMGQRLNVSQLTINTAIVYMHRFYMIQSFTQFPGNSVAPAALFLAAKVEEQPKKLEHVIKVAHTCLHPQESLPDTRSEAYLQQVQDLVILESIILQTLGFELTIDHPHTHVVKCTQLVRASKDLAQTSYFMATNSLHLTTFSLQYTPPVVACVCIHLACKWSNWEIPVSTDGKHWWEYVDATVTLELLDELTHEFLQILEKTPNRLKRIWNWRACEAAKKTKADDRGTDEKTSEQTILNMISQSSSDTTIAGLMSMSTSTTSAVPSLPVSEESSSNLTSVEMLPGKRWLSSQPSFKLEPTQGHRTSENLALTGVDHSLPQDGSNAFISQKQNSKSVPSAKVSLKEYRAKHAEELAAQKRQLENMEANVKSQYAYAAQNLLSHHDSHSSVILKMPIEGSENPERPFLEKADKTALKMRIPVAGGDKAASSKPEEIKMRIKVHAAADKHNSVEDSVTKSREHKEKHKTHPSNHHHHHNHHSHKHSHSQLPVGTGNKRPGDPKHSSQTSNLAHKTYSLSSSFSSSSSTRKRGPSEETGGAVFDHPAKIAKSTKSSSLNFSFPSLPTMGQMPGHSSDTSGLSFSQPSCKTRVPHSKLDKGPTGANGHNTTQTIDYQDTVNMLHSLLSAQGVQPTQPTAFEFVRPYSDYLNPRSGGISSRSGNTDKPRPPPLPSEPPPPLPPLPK
T2 sequence (Q00535 whole entry): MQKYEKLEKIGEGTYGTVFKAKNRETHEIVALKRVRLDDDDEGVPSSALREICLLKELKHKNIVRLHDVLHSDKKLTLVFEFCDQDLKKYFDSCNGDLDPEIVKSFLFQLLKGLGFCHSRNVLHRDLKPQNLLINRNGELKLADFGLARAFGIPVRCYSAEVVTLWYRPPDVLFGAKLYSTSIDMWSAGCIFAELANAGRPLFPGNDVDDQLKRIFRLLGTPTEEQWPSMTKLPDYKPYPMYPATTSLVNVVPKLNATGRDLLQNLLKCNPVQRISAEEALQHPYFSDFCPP
T2 sequence (Q15078 99-307 partner limits assumed): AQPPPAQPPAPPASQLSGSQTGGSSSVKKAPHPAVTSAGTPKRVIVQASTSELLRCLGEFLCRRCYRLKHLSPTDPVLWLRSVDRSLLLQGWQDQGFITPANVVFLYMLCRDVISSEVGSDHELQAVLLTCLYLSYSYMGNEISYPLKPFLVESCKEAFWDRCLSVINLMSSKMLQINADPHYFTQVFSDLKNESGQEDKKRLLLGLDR
T7 sequence (P49674 whole entry): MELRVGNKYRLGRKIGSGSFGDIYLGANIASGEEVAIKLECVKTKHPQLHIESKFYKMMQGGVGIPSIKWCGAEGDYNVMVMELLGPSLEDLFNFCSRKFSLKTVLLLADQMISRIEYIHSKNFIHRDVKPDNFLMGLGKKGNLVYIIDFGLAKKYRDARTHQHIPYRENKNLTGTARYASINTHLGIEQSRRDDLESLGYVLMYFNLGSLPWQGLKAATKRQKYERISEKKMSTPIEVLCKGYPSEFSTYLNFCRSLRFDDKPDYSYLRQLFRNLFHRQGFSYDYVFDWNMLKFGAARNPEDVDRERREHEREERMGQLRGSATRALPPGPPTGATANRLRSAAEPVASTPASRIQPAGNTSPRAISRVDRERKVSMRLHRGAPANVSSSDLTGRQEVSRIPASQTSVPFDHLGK
T9 sequence (P49841 whole entry): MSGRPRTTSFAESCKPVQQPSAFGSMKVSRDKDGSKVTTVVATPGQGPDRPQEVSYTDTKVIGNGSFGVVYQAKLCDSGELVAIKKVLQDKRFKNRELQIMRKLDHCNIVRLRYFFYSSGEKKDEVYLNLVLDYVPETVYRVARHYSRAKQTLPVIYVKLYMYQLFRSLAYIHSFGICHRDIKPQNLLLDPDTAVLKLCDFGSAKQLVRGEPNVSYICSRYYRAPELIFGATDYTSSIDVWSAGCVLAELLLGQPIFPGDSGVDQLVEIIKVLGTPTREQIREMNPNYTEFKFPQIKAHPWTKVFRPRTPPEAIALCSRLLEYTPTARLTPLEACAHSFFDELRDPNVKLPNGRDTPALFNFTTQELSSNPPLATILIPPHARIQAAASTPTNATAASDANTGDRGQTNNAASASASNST
T4 sequence (P22518 whole entry): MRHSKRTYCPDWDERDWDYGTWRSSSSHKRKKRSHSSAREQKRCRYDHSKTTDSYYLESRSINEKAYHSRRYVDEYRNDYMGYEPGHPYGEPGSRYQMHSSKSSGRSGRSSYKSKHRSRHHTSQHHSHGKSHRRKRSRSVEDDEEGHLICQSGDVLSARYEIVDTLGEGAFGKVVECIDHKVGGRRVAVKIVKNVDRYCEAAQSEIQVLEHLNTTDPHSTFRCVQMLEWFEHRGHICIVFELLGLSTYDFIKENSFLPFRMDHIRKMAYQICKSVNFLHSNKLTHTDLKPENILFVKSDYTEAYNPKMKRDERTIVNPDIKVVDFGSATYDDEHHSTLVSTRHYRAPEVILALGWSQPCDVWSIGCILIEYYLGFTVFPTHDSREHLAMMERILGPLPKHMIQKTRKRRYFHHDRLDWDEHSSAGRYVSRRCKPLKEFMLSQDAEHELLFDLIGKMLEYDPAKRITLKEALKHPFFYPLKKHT
T6 sequence (P11309 whole entry): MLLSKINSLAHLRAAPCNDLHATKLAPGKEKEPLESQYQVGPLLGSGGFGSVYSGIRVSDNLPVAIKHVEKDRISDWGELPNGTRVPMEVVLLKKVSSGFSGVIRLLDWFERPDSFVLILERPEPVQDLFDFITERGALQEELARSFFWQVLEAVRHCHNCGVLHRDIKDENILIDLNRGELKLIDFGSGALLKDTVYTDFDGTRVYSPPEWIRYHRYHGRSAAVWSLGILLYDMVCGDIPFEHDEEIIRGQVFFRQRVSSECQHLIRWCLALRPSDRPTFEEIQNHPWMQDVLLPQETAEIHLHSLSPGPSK

| SMILES | remaining activity at 1 µM [1] | remaining activity at 10 µM [1] | remaining activity at 1 µM [2] | remaining activity at 10 µM [2] | remaining activity at 1 µM [3] | remaining activity at 10 µM [3] | IC50 at 48 h [4] | remaining activity at 1 µM [5] | remaining activity at 10 µM [5] | IC50 at 48 h [6] | remaining activity at 1 µM [7] | remaining activity at 10 µM [7] | remaining activity at 1 µM [8] | remaining activity at 10 µM [8] | IC50 at 48 h [9] | IC50 at 48 h [10, 16] | IC50 at 48 h [10, 17] | IC50 at 48 h [11] | remaining activity at 1 µM [12] | remaining activity at 10 µM [12] | further results |
| --- | --- | --- | --- | --- | --- | --- | --- | --- | --- | --- | --- | --- | --- | --- | --- | --- | --- | --- | --- | --- | --- |
| CC(C)(C)OC(=O)N[C@H]1CC[C@@H](n2cc(COc3cccc4cnc(Nc5cc(Cl)cc(Cl)c5)nc34)nn2)CC1 [15b, tert-Butyl ((cis)-4-(4-(((2-((3,5-dichlorophenyl)amino)quinazolin-8-yl)oxy)methyl)-1H-1,2,3-triazol-1-yl)cyclohexyl)carbamate] | ≥ 100% | 74% | ≥ 100% | 68% | 92% | 61% | 8 µM | 96% | 73% | > 25 µM | 89% | 58% | 75% | 73% | 20 µM | > 25 µM | > 25 µM | > 25 µM | ≥ 100% | 81% | remaining activity at 1 µM [13]: 95%; remaining activity at 10 µM [13]: ≥ 100%; IC50 at 48 h [14]: 21 µM; remaining activity at 1 µM [15]: 93%; remaining activity at 10 µM [15]: 57% |
| N[C@H]1CC[C@H](n2cc(COc3cccc4cnc(Nc5cc(Cl)cc(Cl)c5)nc34)nn2)CC1 [19b, 8-((1-((trans)-4-Aminocyclohexyl)-1H-1,2,3-triazol-4-yl)methoxy)-N-(3,5-dichlorophenyl)quinazolin-2-amine hydrochloride] | ≥ 100% | 55% | ≥ 100% | 42% | 91% | 42% | 2 µM | 12% | 7% | 3 µM | 95% | 90% | 79% | 44% | 14 µM | 4 µM | 1.3 µM | 3 µM | 63% | 20% | pIC50 ([1]; 10 µM ATP, duplicate): 5.26; pIC50 ([5]; mouse CLK1 orthologue, read-out: IC50 MmCLK1): 6.68; remaining activity at 1 µM [13]: 92%; remaining activity at 10 µM [13]: 92%; IC50 at 48 h [14]: 3 µM; remaining activity at 1 µM [15]: 44%; remaining activity at 10 µM [15]: 15% |

Reference: article PMC9571063 (Molecules, 2022)
